How the values were obtained:
WEHI-S cells [1] = test: Induction of apoptosis compared with reference sigma ligands, WEHI-S; format: cell-based, murine; details: versus Haloperidol and pentazocine
Text: (§1) Murine fibrosarcoma cells WEHI-S, Wn902, Wn912, and WEHI-R4 are normal, vector control, Hsp70 overexpressing, and hTNF resistant cells, respectively. Other cell types tested include: Human breast cancer cell types MCF7-S1 and MDA-MB-468, and non-tumorigekic immortalized breast epithelial cells HBL100. MCF7 casp3.1 and −3.3 and neo2 are single cell clones expressing caspase3 and vector. MCF7 pCEP, -Bcl2 WT, -Bcl2 NT, -Bcl2 Acta, and -Bcl2 Cb5 are single cell clones expressing vector, wildtype Bcl2, cytoplasma localized Bcl2, mitochondria localized Bcl2, and ER localized Bcl2 (Maria Høyer Hansen, Apoptosis Laboratory, Danish Cancer Society). Human neuroblastoma cell line SK-N-MC cells (ATCC, USA). […]
(§2) Cell viability was measured using the MTT reduction assay. Conversion of the tetrazolium salt 3-(4,5-dimethylthiazole-2-yl)-2,5-diphenyltetrasodiumbromide (MTT, SIGMA-Aldrich) into the blue-colored formazan product was assessed spectrophotometrically by absorption at 570 nm using a Versamax microplate reader (Molecular Devices). The survival rate was determined as the percentage of untreated cells or inhibitor-treated cells: Cells were seeded into 96-well plate, containing 200 μL media, and treated the following day with drugs. The effect on cell viability was assessed 24-60 h after drug addition by removal of 100 μL media and addition of 25 μL MTT solution (1 mg/mL in PBS, sterile filtered). […]

MCF7 cells = test: Induction of apoptosis compared with reference sigma ligands, MCF7; format: cell-based, human; details: versus Haloperidol and pentazocine
Text: as §1, §2

WEHI-S cells [2] = test: Induction of cell death in combination with chemotherapeutics; format: cell-based, murine; details: together with etoposide, doxorubicin, staurosporin, vincristine and tamoxifen
Text: as §1, §2

[3] = test system: N1H3T3 murine fibroblasts transduced with v-Ha-ras or c-src; test: Sensitivity of fibroblasts towards Siramesine after oncogenic transformation; format: cell-based; details: upon oncogenic transformation by ras or src
Text: as §1, §2

effector caspase = test: Mode of cell death: nuclear morphology, caspase inhibitors, caspase 3/7-like activity; format: cell-based
Text: (§3) The following protease inhibitors were used: zVAD-fmk, DEVD-fmk (Bachem Bubendorf, Switzerland), DEVD-CHO (Neosystems, Strasbourg, France), LEHD-CHO, zFA-fmk (Enzyme System Products, Livermore, Calif.), CA-074-Me (Peptides International, Louisville, Ky.), APC1138 (Celera Applied Biosystems, Foster City, Calif., USA),. Pepstatin A, PD150606, and calpain inhibitor I (CI) (Calbiochem, La Jolla, Calif.), TPCK (Boehringer Mannheim), pefabloc (AEBSF) (Roche Diagnostics, DK).
The cell death mode was assessed by the type of nuclear condensation and performed by hoechst staining (cell permeable Hoechst 33342, SIGMA-Aldrich) of drug-treated cells. Non cell permeable Sytox Green (Molecular Probes) was used to assay loss of membrane integrity and compared with nuclear morphological changes observed with Hoechst. Cells were incubated with 10.000× dilution of 25 mg/mL hoechst and /or 10.000× dilution of 5 mM sytox green for 5 min at 37° C. where after type of nuclear condensation and possible co-stain was analyzed using an inverted Olympus microscope IX-70.
(§4) To measure cytosolic cystein cathepsin enzyme activity, subconfluent cells seeded in 24-well plates were treated with an extraction buffer (250 mM sucrose, 20 mM HEPES, 10 mM KCl, 1.5 mM MgCl2, 1 mM EDTA, 1 mM EGTA, 1 mM pefablock; pH 7.5) containing 20 μg/mL digitonin for 12-15 min on ice. […]

[4] = test system: cultured tumor cell lines originating from tumors of the prostate, breast and cervix; test: Induction of programmed cell death in cultured tumor cell lines (MTT / LDH release); format: cell-based, human; details: dose dependent, tumor cell lines of various origins incl. prostate
Text: as §1, §2

[5] = test system: Tumor cells protected by ectopic expression of Bcl-2; test: Killing of tumor cells with ectopic expression of Bcl-2; format: cell-based; details: cells protected against most other anti-cancer drugs by ectopic expression of Bcl-2
Text: as §1, §2

lysosomal cathepsins = test: Release of lysosomal cathepsins (immunostaining of cathepsin B and L, purified lysosomes, cathepsin inhibitors); format: cell-based
Text: as §3
as §4, with “ice. To measure total cellular cystein cathepsin enzyme activity, cells were treated with the above extraction buffer containing 200 μg/mL digitonin for 12-15 min on ice.” for “ice.”
Cells were exposed to the lysomotropic weak base and metachromatic fluorochrome acridine orange (AO, Molecular Probes) that accumulates in acidic compartments. […] Cells were either evaluated using an inverted Olympus microscope IX-70 or detached from the substratum and analyzed by flow cytometry using a FACSort (Becton Dickinson, San Jose, Calif.) with an argon ion laser with an output wavelength of 488 nm and analyzed using CELLQuest software. […]

WEHI-R4 cells = test system: WEHI-R4 cells
Protocol: WEHI-R4 cells (5×10^6) were implanted subcutaneously in the back of immunocompetent female BALB/c mice. Siramesine treatment commenced two days prior to tumor implant. Mice were divided into groups (5-9/group) and administered peroral 200 μL 1) vehicle (0.5% methylcellulose 15 in 0.9% NaCl solution), 2) 100 mg/kg/day Siramesine in suspension (in 0.5% methylcellulose 15 in 0.9% NaCl solution) 7 days per week. For combinational in vivo studies, 50 mg/kg siramesine was administered 7 days/week in combination with a single dose of etoposide (i.p.) up to 30 mg/kg (administered on day one). Tumor volumes were estimated by the use of a caliper. The effect of the drugs on the tumor growth was monitored over 14-21 days before the mice were sacrificed.

p53 = p53 activation; format: cell-based

Fc1ccc(-n2cc(CCCCN3CCC4(CC3)OCc3ccccc34)c3ccccc32)cc1 [Siramesine, 1′-[4-[1-(4-fluorophenyl)-1H-indole-3-yl]-1-butyl]-spiro[isobenzofuran-1(3H)4′-piperidine]]
potency as inducer of apoptosis versus reference sigma ligands (WEHI-S cells [1]): significantly more potent inducer of apoptosis than Haloperidol and pentazocine | potency as inducer of apoptosis versus reference sigma ligands (MCF7 cells): significantly more potent inducer of apoptosis than Haloperidol and pentazocine | interaction with chemotherapeutics in induction of cell death (WEHI-S cells [2]): synergistic | sensitivity of cells towards Siramesine [3]: increased | effector caspase activation (effector caspase): absence of effector caspase activation | mode of death (effector caspase; based on nuclear morphological changes and absence of protection by pharmacological caspase inhibitors): caspase-independent | induction of programmed cell death [4]: effectively induces programmed cell death | killing of Bcl-2 expressing tumor cells [5]: effectively killed | effect of pharmacological cathepsin inhibitors on siramesine-induced death (lysosomal cathepsins): can attenuate the death | release of lysosomal cathepsins into the cytosol (lysosomal cathepsins; immunohistochemical staining of cathepsin B and L, in vitro release from purified lysosomes): release of lysosomal cathepsins into the cytosol seems to be involved in the execution of the death process | effect on tumor growth (WEHI-R4 cells; BALB/c mice, siramesine alone, peroral): anti-tumorigenic effect | effect on tumor growth, combination with etoposide (WEHI-R4 cells; BALB/c mice, siramesine and etoposide versus groups single-treated): combinational effect | tolerability in vivo (WEHI-R4 cells; mouse, in vivo): well tolerated | activation of p53 (p53): does not activate p53

— patent US20060178389A1, “Use of siramesine in the treatment of cancer” (priority 2003, published 2006)
